How the values were obtained:
[1] = biological target: T1, human Kv3.2 channels (hKv3.2) (Homo sapiens, UniProt Q96PR1); test: IonWorks Quattro electrophysiology, hKv3.2 currents, activation time constant (Tauact); assay type: cell-based; details: hKv3.2, -15 mV pulse; compound 6.25 μM (concentration giving ~0.3 nA current)
T1 construct: expressed in transfected cells
T1 sequence (Q96PR1 1-638): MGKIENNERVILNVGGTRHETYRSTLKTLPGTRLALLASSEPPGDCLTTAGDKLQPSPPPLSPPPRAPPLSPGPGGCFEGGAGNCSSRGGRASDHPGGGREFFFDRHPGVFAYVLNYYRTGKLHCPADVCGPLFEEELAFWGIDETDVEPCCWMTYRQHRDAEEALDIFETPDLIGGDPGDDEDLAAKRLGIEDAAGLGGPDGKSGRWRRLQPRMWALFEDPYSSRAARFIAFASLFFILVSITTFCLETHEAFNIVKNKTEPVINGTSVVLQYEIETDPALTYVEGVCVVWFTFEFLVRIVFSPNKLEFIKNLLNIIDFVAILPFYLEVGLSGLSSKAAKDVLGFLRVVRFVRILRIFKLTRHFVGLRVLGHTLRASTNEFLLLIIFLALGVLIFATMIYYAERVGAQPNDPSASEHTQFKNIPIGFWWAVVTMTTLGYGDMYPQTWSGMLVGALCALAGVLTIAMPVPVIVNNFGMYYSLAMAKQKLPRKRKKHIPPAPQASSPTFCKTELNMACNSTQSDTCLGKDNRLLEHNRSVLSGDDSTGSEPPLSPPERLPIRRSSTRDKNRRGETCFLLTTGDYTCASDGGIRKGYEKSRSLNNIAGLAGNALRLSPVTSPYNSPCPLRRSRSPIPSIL
Protocol: The ability of the compounds of the disclosure to modulate the voltage-gated potassium channel subtypes Kv3.2/3.1 may be determined using the following assay.
To assess compound effects on human Kv3.2 channels (hKv3.2), a stable cell line expressing hKv3.2 was created by transfecting Chinese Hamster Ovary (CHO)-K1 cells with a pCIH5-hKv3.2 vector. Cells were cultured in DMEM/F12 medium supplemented by 10% Foetal Bovine Serum, 1× non-essential amino acids (Invitrogen) and 500 ug/ml of Hygromycin-B (Invitrogen). Cells were grown and maintained at 37° C. in a humidified environment containing 5% CO2 in air.
The day of the experiment, cells were removed from the incubator and the culture medium removed. Cells were washed with 5 ml of Dulbecco's PBS (DPBS) calcium and magnesium free and detached by the addition of 3 ml Versene (Invitrogen, Italy) followed by a brief incubation at 37° C. for 5 minutes. The flask was tapped to dislodge cells and 10 ml of DPBS containing calcium and magnesium was added to prepare a cell suspension. The cell suspension was then placed into a 15 ml centrifuge tube and centrifuged for 2 min at 1200 rpm. After centrifugation, the supernatant was removed and the cell pellet re-suspended in 4 ml of DPBS containing calcium and magnesium using a 5 ml pipette to break up the pellet. Cell suspension volume was then corrected to give a cell concentration for the assay of approximately 3 million cells per ml.
Experiments were conducted at room temperature using IonWorks Quattro™ planar array electrophysiology technology (Molecular Devices Corp.) with PatchPlate™ PPC. Stimulation protocols and data acquisition were carried out using a microcomputer (Dell Pentium 4). Planar electrode hole resistances(Rp) were determined by applying a 10 mV voltage step across each well. These measurements were performed before cell addition. […] Following this, amphotericin-B solution was added to the intracellular face of the electrode to achieve intracellular access. Cells were held at −70 mV. Leak subtraction was conducted in all experiments by applying 50 ms hyperpolarizing (10 mV) prepulses to evoke leak currents followed by a 20 ms period at the holding potential before test pulses. From the holding potential of −70 mV, a first test pulse to −15 mV was applied for 100 ms and following a further 100 ms at −70 mV, a second pulse to 40 mV was applied for 50 ms. Cells were then maintained for a further 100 ms at −100 mV and then a voltage ramp from −100 mV to 40 mV was applied over 200 ms. In all experiments, the test pulses protocol was performed in the absence (pre-read) and presence (post-read) of the test compound. Pre- and post-reads were separated by the compound addition followed by a 3 minute incubation.
The intracellular solution contained the following (in mM): K-gluconate 100, KCl 54, MgCl2 3.2, HEPES 5, adjusted to pH 7.3 with KOH. Amphotericin-B solution was prepared as 50 mg/ml stock solution in DMSO and diluted to a final working concentration of 0.1 mg/ml in intracellular solution.
The final assay dilution was 200 and the final compound concentrations were in the range 50 μM to 50 nM.
The recordings were analysed and filtered using both seal resistance (>20 MΩ) and peak current amplitude (>500 pA at the voltage step of 40 mV) in the absence of compound to eliminate unsuitable cells from further analysis. Kv3 channel-mediated outward currents were measured determined from the mean amplitude of the current over the final 10 ms of the −15 mV voltage pulse minus the mean baseline current at −70 mV over a 10 ms period just prior to the −15 mV step. This Kv3 channel currents following addition of the test compound were then compared with the currents recorded prior to compound addition. […] The normalised data were analysed using ActivityBase or Excel software.

[2] = test system: parvalbumin-positive interneurons in the somatosensory cortex; test: Firing of parvalbumin-positive interneurons in somatosensory cortex slices, in vitro; assay type: cell-based, mouse; details: for frequency of action potential firing in response to step currents: vs TEA alone, p<0.05

## CC[C@H]1NC(=O)N(c2ccc(Oc3ccc(C)c(OC)c3)nc2)C1=O [RE1, (5R)-5-ethyl-3-(6-{[4-methyl-3-(methyloxy)phenyl]oxy}-3-pyridinyl)-2,4-imidazolidinedione]
[1]
  Tauact mean: 9.9 ms
[2]; TEA (0.5 mM) + compound 1 μM vs TEA (0.5 mM) only, p<0.05, n=9
  decrease of mean action potential half-width: 24%
[2]; TEA (0.5 mM) + compound 1 μM, n=9
  frequency of action potential firing in response to step currents: significantly reversed
[2]; TEA (0.5 mM) + compound 10 μM vs TEA (0.5 mM) only, p<0.01, n=5
  decrease of mean action potential half-width: 36%
[2]; TEA (0.5 mM) + compound 10 μM, n=5
  frequency of action potential firing in response to step currents: significantly reversed
